{
  "source": "patent US9447085B2",
  "about": "“Iminothiadiazine dioxides containing a thioamide, amidine, or amide oxime group as BACE inhibitors, compositions, and their use” (Merck Sharp & Dohme Corp., priority 2012, dated 2016)",
  "key": {"[1]": {"target": "purified human autoBACE-2 (Homo sapiens (Human), UniProt Q9Y5Z0)", "sequence (Q9Y5Z0 63-473)": "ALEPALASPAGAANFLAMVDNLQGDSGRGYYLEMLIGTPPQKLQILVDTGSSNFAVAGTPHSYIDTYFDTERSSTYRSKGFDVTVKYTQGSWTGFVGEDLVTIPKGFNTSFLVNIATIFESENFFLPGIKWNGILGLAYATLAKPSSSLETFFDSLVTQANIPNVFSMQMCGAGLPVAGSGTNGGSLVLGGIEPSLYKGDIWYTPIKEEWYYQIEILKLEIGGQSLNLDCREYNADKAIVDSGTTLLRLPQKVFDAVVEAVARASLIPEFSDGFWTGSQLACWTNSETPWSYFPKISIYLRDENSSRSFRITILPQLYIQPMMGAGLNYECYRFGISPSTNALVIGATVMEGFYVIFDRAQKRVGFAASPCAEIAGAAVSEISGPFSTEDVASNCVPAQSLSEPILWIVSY", "test": "BACE-2 Assay (BACE-HTRF assay)", "format": "biochemical", "conditions": "Ki calculated from IC50 using the Cheng-Prusoff equation; read-out: BACE2 Ki", "description": "Inhibitor IC50s at purified human autoBACE-2 are determined in a time-resolved endpoint proteolysis assay that measures hydrolysis of the QSY7-[…]-Eu-amide FRET peptide substrate (BACE-HTRF assay). […] DMSO is present at 5% final concentration in the assay. Following laser excitation of sample wells at 320 nm, the fluorescence signal at 620 nm is collected for 400 ms following a 50 μs delay on a RUBYstar HTRF plate reader (BMG Labtechnologies). Raw RFU data is normalized to maximum (1.0 nM BACE/DMSO) and minimum (no enzyme/DMSO) RFU values. […] The Ki values are calculated from the IC50 using the Cheng-Prusoff equation."}, "[2]": {"target": "soluble human BACE1 catalytic domain (Homo sapiens (Human), UniProt P56817)", "sequence (P56817 75-416)": "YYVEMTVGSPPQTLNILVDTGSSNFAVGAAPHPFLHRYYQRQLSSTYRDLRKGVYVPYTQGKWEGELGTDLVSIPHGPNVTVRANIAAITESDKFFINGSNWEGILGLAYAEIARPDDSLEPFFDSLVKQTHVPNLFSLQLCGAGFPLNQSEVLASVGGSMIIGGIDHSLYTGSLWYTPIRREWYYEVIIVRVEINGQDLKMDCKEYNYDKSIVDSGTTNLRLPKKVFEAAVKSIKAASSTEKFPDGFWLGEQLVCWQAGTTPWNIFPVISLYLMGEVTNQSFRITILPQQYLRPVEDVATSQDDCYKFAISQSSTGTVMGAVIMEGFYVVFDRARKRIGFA", "test": "BACE1 HTRF FRET Assay", "format": "biochemical", "conditions": "for Ki: Ki calculated from IC50 using the Cheng-Prusoff equation", "from_the_text": "A homogeneous time-resolved FRET assay can be used to determine IC50 values for inhibitors of the soluble human BACE1 catalytic domain. This assay monitors the increase of 620 nm fluorescence that resulted from BACE1 cleavage of an APPswedish APP^swe mutant peptide FRET substrate (QSY7-[…]-Europium-amide). This substrate contains an N-terminal QSY7 moiety that serves as a quencher of the C-terminal Europium fluorophore (620 nm Em). In the absence of enzyme activity, 620 nm fluorescence is low in the assay and increased linearly over 3 hours in the presence of uninhibited BACE1 enzyme Inhibition of BACE1 cleavage of the QSY7-APP^swe-Eu substrate by inhibitors is manifested as a suppression of 620 nm fluorescence.\nReactions are initiated by addition of 10 μl of 600 nM QSY7-APP^swe-Eu substrate (200 nM final) to give a final reaction volume of 30 μl in a 384 well Nunc HTRF plate. The reactions are incubated at 30° C. for 1.5 hours. The 620 nm fluorescence is then read on a Rubystar HTRF plate reader (BMG Labtechnologies) using a 50 millisecond delay followed by a 400 millisecond acquisition time window Inhibitor IC50 values are derived from non-linear regression analysis of concentration response curves."}},
  "data": [
    {"smiles": "COc1ccc(C(=S)Nc2ccc(F)c([C@]3(C)CS(=O)(=O)N(C)C(=N)N3)c2)nc1", "note": "[Example 2]", "values": [
      {"measurement": "Ki", "setting": "[1]", "value": 8, "unit": "nM"},
      {"measurement": "Ki", "setting": "[2]", "value": 57, "unit": "nM"}
    ]},
    {"smiles": "CN1C(=N)N[C@](C)(c2cc(NC(=S)c3ccc(F)cn3)cc(F)c2F)CS1(=O)=O", "note": "[Example 12]", "values": [
      {"measurement": "Ki", "setting": "[1]", "value": 3, "unit": "nM"},
      {"measurement": "Ki", "setting": "[2]", "value": 17, "unit": "nM"}
    ]},
    {"smiles": "CN1C(=N)N[C@](C)(c2cc(NC(=S)C(F)F)ccc2F)CS1(=O)=O", "note": "[Example 4]", "values": [
      {"measurement": "Ki", "setting": "[1]", "value": 7, "unit": "nM"},
      {"measurement": "Ki", "setting": "[2]", "value": 83, "unit": "nM"}
    ]},
    {"smiles": "CN1C(=N)N[C@](C)(c2cc(NC(=S)c3ccc(F)cn3)ccc2F)CS1(=O)=O", "note": "[Example 4b]", "values": [
      {"measurement": "Ki", "setting": "[1]", "value": 2, "unit": "nM"},
      {"measurement": "Ki", "setting": "[2]", "value": 25, "unit": "nM"}
    ]},
    {"smiles": "CN1C(=N)N[C@](C)(c2cc(NC(=S)c3ccc(Cl)cn3)ccc2F)CS1(=O)=O", "note": "[Example 1]", "values": [
      {"measurement": "Ki", "setting": "[1]", "value": 1, "unit": "nM"},
      {"measurement": "Ki", "setting": "[2]", "value": 9.1, "unit": "nM"}
    ]},
    {"smiles": "COc1cnc(C(=S)Nc2cc(F)c(F)c([C@]3(C)CS(=O)(=O)N(C)C(=N)N3)c2)cn1", "note": "[Example 14]", "values": [
      {"measurement": "Ki", "setting": "[1]", "value": 18, "unit": "nM"},
      {"measurement": "Ki", "setting": "[2]", "value": 8, "unit": "nM"}
    ]},
    {"smiles": "CN1C(=N)N[C@](C)(c2cc(NC(=S)c3ccc(C(F)(F)F)cn3)cc(F)c2F)CS1(=O)=O", "note": "[Example 13]", "values": [
      {"measurement": "Ki", "setting": "[1]", "value": 21, "unit": "nM"},
      {"measurement": "Ki", "setting": "[2]", "value": 30, "unit": "nM"}
    ]},
    {"smiles": "CN1C(=N)N[C@](C)(c2cc(NC(=N)c3ccc(Br)cn3)ccc2F)CS1(=O)=O", "note": "[Example 7]", "values": [
      {"measurement": "Ki", "setting": "[1]", "value": 148, "unit": "nM"},
      {"measurement": "Ki", "setting": "[2]", "value": 371, "unit": "nM"}
    ]},
    {"smiles": "CO/N=C(/Nc1ccc(F)c([C@]2(C)CS(=O)(=O)N(C)C(=N)N2)c1)c1ccc(Cl)cn1", "note": "[Example 6]", "values": [
      {"measurement": "Ki", "setting": "[1]", "value": 58, "unit": "nM"},
      {"measurement": "Ki", "setting": "[2]", "value": 340, "unit": "nM"}
    ]},
    {"smiles": "COCC(=S)Nc1cc(F)c(F)c([C@]2(C)CS(=O)(=O)N(C)C(=N)N2)c1", "note": "[Example 10]", "values": [
      {"measurement": "Ki", "setting": "[1]", "value": 6, "unit": "nM"},
      {"measurement": "Ki", "setting": "[2]", "value": 188, "unit": "nM"}
    ]},
    {"smiles": "COc1ccc(C(=S)Nc2cc(F)c(F)c([C@]3(C)CS(=O)(=O)N(C)C(=N)N3)c2)nc1", "note": "[Example 9]", "values": [
      {"measurement": "Ki", "setting": "[1]", "value": 15, "unit": "nM"},
      {"measurement": "Ki", "setting": "[2]", "value": 57, "unit": "nM"}
    ]},
    {"smiles": "CO/N=C(/Nc1ccc(F)c([C@]2(C)CS(=O)(=O)N(C)C(=N)N2)c1)c1ccc(OC)cn1", "note": "[Example 5]", "values": [
      {"measurement": "Ki", "setting": "[1]", "value": 1450, "unit": "nM"},
      {"measurement": "inhibition at 10 µM", "setting": "[2]; @ 10 uM", "value": 47, "unit": "%"}
    ]},
    {"smiles": "CN1C(=N)N[C@](C)(c2cc(NC(=S)C(F)F)cc(F)c2F)CS1(=O)=O", "note": "[Example 11]", "values": [
      {"measurement": "Ki", "setting": "[1]", "value": 28, "unit": "nM"},
      {"measurement": "Ki", "setting": "[2]", "value": 95, "unit": "nM"}
    ]},
    {"smiles": "CN1C(=N)N[C@](C)(c2cc(NC(=S)c3ccc(Cl)cn3)cc(F)c2F)CS1(=O)=O", "note": "[Example 8]", "values": [
      {"measurement": "Ki", "setting": "[1]", "value": 2, "unit": "nM"},
      {"measurement": "Ki", "setting": "[2]", "value": 9, "unit": "nM"}
    ]},
    {"smiles": "COCC(=S)Nc1ccc(F)c([C@]2(C)CS(=O)(=O)N(C)C(=N)N2)c1", "note": "[Example 3]", "values": [
      {"measurement": "Ki", "setting": "[1]", "value": 2, "unit": "nM"},
      {"measurement": "Ki", "setting": "[2]", "value": 152, "unit": "nM"}
    ]},
    {"smiles": "COc1cnc(C(=S)Nc2ccc(F)c([C@]3(C)CS(=O)(=O)N(C)C(=N)N3)c2)cn1", "note": "[Example 4c]", "values": [
      {"measurement": "Ki", "setting": "[1]", "value": 4, "unit": "nM"},
      {"measurement": "Ki", "setting": "[2]", "value": 3, "unit": "nM"}
    ]}
  ]
}
